These are literature values, as cited in patent publication US20240009133A1, “METHODS OF TREATING AUTOIMMUNE OR INFLAMMATORY CONDITIONS WITH CANNABIDIOL OR ITS DERIVATIVES/ANALOGS” (ORCOSA INC., priority 2020, published 2024).

For the data set the following is noted: oral, randomized control trial in Crohn's disease.

On to `C=C(C)[C@@H]1CCC(C)=C[C@H]1c1c(O)cc(CCCCC)cc1O` [CBD, cannabidiol], for which the efficacy entry is listed as “no statistical efficacy demonstrated” and the safety entry is “safe”.
